Measured values from US20220307021A1, “A NEUROPILIN ANTAGONIST IN COMBINATION WITH A P38ALPHA-KINASE INHIBITOR FOR THE TREATMENT OF CANCER” (INSERM (Institut National de la santé et de la Recherche …, priority 2019, published 2022).

Legend:
MDA-MB-231 [1] = conditions: read-out: half maximal inhibitory anti-proliferative concentration (IC50); MDA-MB-231, previously reported; cited from earlier work
MDA-MB-231 [2] = assay: Human apoptosis proteome profiler array, MDA-MB-231; type: cell-based; conditions: for HIF-1α expression: MDA-MB-231, compound at IC50
Method: (§1) MDA-MB-231 cells were incubated in the presence or absence of NRPa-47 or NRPa-48 compounds (IC50) and protein lysates were prepared and quantified as previously described. Biochemical signaling detection was evaluated by using human proteome profiler array (human phosphokinase array and human apoptosis array) according to the manufacturer's instructions (R&D systems, France). Briefly, capture and control antibodies were spotted in duplicate on nitrocellulose membranes. Cellular extracts were incubated overnight on membrane, washed to remove unbound proteins, followed by incubation with a cocktail of biotinylated detection antibodies. Streptavidin-HRP and chemiluminescent detection reagents were applied, and the signal intensity corresponding to the amount of protein bound was measured at each capture spot using ImageJ software.

[3] = system: MDA-MB-231-xenografted NOG mice; assay: In vivo xenografted-tumor mouse model
Method: Protocol was approved by the INSERM Institutional Care and Use Committee according to the European Communities Council Directive. NOD/scid/IL-2Rγ−/− (NOG) female mice were bred and housed in pathogen-free conditions in accordance with the Federation of European Animal Associations (FELSA) guidelines. […]. […] Tumor growth and body weight were measured every three days during the treatment. Mice were weighed regularly to assess the toxicity of the treatment and the tumors were measured with calipers (width×width×length×Pi/6) to determine growth.

[4] = target: selected panel of 40 protein kinases; assay: Protein kinase profiling (Eurofins); type: biochemical; conditions: 1 μM of each NRPa, relative to DMSO control
Method: NRPa-47 and NRPa-48 specificity profiling assays were carried out at Eurofins Pharma Discovery Services (Dundee, UK) for Protein Kinase Profiling against a selected panel of 40 protein kinases. Results of protein kinases assayed at 1 μM of each NRPa are presented as a percentage of kinase activity in DMSO control reactions.

p38β/p38γ/p38δ = assay: Human phosphokinase proteome profiler array, MDA-MB-231; type: cell-based; conditions: MDA-MB-231, compound at IC50, 10 and 60 minutes
Method: as §1

p38α = assay: as above; type: cell-based; conditions: MDA-MB-231, compound at IC50, 10 and 60 minutes
Method: as §1

AKT-1/-2/-3/-pan = assay: as above; type: cell-based; conditions: MDA-MB-231, compound at IC50, 10 and 60 minutes
Method: as §1

ERK-1/-2 = assay: as above; type: cell-based; conditions: MDA-MB-231, compound at IC50, 10 and 60 minutes
Method: as §1

JNK-1/-2/-3/-pan = assay: as above; type: cell-based; conditions: MDA-MB-231, compound at IC50, 10 and 60 minutes
Method: as §1

[5] = system: RSK-1/RSK-2, MSK-2, HSP-27, GSK-3, p70S6K; assay: Human phosphokinase proteome profiler array, MDA-MB-231: downstream kinase substrates; type: cell-based; conditions: MDA-MB-231, compound at IC50, 10 and 60 minutes
Method: as §1

HIF-1α mRNA = assay: RT-PCR of HIF-1α mRNA in MDA-MB-231; type: cell-based, human; conditions: MDA-MB-231, time dependent, maximum effect at 60 minutes
Method: (§2) MDA-MB-231 RNA was extracted with NucleoSpinRNA II kit (Macherey-Nagel, France) and quantified using Nanodrop (ND-1000 spectrophotometer). 1 μg of each RNA sample was reverse-transcripted into cDNA using iScript cDNA Synthesis Kit (Bio-Rad, France) following the manufacturer's instructions. PCR amplification was performed in reaction mixture (25 μL) containing 200 μM of each dNTP, 1 μg of cDNA, 1 μM of primers and 0.625 U of GoTaq DNA Polymerase (Promega, France) with 45 s of denaturation at 95° C., 45 s of annealing at 60° C. and 1 min of extension at 72° C. for 30 cycles. PCR products were separated by 1% agarose gel electrophoresis, stained with ethidium bromide (Sigma, Germany) and analyzed using Gel Doc 2000 System (Bio-Rad, France).

VEGF-A165 mRNA = assay: RT-PCR of VEGF-A165 mRNA in MDA-MB-231; type: cell-based, human; conditions: MDA-MB-231, time dependent, maximum effect at 60 minutes
Method: as §2

VEGF-A165/NRP-1 = target: T1, VEGF-A165/NRP-1 (Homo sapiens, UniProt O14786); conditions: previously described [15]; cited from earlier work
T1 sequence (O14786 22-856 limits assumed): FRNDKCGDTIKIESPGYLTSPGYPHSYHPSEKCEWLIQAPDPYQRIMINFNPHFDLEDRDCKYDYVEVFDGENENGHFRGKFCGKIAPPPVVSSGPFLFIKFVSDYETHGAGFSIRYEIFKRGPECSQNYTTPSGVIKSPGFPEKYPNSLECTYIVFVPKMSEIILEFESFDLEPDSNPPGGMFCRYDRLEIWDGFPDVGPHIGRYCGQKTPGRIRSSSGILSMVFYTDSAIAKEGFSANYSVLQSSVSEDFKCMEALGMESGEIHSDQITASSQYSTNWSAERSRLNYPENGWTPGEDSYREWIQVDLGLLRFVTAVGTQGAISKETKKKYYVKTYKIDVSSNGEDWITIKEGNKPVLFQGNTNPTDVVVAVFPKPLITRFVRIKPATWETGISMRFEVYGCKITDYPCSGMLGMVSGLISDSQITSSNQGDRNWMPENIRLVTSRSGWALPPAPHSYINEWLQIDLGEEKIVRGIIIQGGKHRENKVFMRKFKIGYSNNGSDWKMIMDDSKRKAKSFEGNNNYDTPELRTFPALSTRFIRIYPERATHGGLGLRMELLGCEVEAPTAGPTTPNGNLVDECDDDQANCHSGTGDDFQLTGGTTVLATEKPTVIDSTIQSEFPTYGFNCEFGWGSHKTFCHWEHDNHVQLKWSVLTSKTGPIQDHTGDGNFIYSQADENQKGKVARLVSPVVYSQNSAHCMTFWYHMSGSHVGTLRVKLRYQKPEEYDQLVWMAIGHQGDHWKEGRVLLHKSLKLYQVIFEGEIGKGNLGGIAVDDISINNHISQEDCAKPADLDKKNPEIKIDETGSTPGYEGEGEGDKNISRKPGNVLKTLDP

[6] = MDA-MB-231, compound at IC50, 60 minutes and 48 hours

Compound | IC50 (MDA-MB-231 [1]) [nM] | HIF-1α expression (MDA-MB-231 [2]) | anti-apoptotic proteins (Bcl-2, Bcl-x, cIAP-1, cIAP-2, XIAP, Survivin, Livin, Clusterin) and heat shock proteins (HSP-27/-60/-70) level (MDA-MB-231 [2]; [6]) | caspase-3 cleavage (MDA-MB-231 [2]; [6]) | catalase (oxidative stress) (MDA-MB-231 [2]; [6]) | cell cycle protein expression (p21, p27) and phosphorylation of Rad-17 (MDA-MB-231 [2]; [6]) | heme oxygenase HO-1/HMOX1/HSP32 and HO-2/HMOX2 expression (MDA-MB-231 [2]; [6]) | p53 phosphorylation sites (MDA-MB-231 [2]; [6]) | pro-apoptotic proteins (Bad, Bax, SMAC/Diablo, HTRA2/Omi, cytochrome c) level (MDA-MB-231 [2]; [6]) | kinase activity of 40-selected kinases in vitro [4] | p38β/p38γ/p38δ phosphorylation (p38β/p38γ/p38δ) | p38α phosphorylation (p38α) | AKT-1/-2/-3/-pan phosphorylation (AKT-1/-2/-3/-pan) | ERK-1/-2 phosphorylation (ERK-1/-2) | JNK-1/-2/-3/-pan phosphorylation (JNK-1/-2/-3/-pan) | GSK-3 phosphorylation [5] | HSP27 phosphorylation [5] | MSK2 phosphorylation [5] | RSK-1 phosphorylation [5] | RSK-2 phosphorylation [5] | other results
O=C(NC(=S)Nc1cccc(-c2nc3ccccc3[nH]2)c1)c1ccc2c(c1)OCCO2 [NRPa-48, N-[3-(1H-benzimidazol-2-yl)phenyl]-N′-(2,3-dihydro-1,4-benzodioxin-6-ylcarbonyl)thiourea] | 400 | inhibit HIF-1α expression | down-modulated | induction | high level of catalase | reduction | both reduced | inhibited | significantly decreased | None of these were significantly affected | significantly inhibited | significantly inhibited | inhibited from 10 minutes until 60 minutes | significantly inhibited | significantly inhibited | inhibited in a time dependent manner | inhibited in a time dependent manner | inhibited in a time dependent manner | inhibited in a time dependent manner | inhibited in a time dependent manner | PON-2 level (MDA-MB-231 [2]; [6]): remained unchanged; body weight of treated animals ([3]; 50 mg/kg by force-feeding, three times a week): did not show any loss of weight; treated mice alive at the end of treatment ([3]; 50 mg/kg force-feeding): 62%; tumor size reduction compared to the reference group ([3]; 50 mg/kg force-feeding, Day-38 (21 days after starting treatment)): approximately 29%; tumor size reduction ([3]; 50 mg/kg force-feeding, Day-45): 34%; median survival ([3]; 50 mg/kg force-feeding, control group 35 days): over 56 days
Cc1ccc(-c2nc3ccccc3[nH]2)cc1NC(=S)NC(=O)c1ccc2c(c1)OCCO2 [NRPa-47, N-[5-(1H-benzimidazol-2-yl)-2-methylphenyl]-N′-(2,3-dihydro-1,4-benzodioxin-6-ylcarbonyl)thiourea] | 600 | inhibit HIF-1α expression | significantly reduced | induction | catalase induction | reduction | both reduced | inhibited | rapid decrease | None of these were significantly affected | no significant variation | significantly decreased | up-regulated | significant hyper-phosphorylations | significant hyper-phosphorylations | affected | dephosphorylated | dephosphorylated | remained unchanged | increase in phosphorylation | HIF-1α mRNA expression (HIF-1α mRNA): reduced; VEGF-A165 mRNA expression (VEGF-A165 mRNA): reduced; VEGF-A165/NRP-1 binding (VEGF-A165/NRP-1): inhibited VEGF-A165/NRP-1 binding; p70S6K phosphorylation [5]: up-regulated
